The values that follow come from patent EP2796042A1, “Compounds promoting plant growth” (Albert-Ludwigs-Universität Freiburg, priority 2013, dated 2014).

The structures appear in SMILES notation.

The test system of data set [1] is Arabidopsis thaliana. Nature of the data set: Root growth and development of seedlings on AM medium with exogenous compound. Type of data set: in vivo. As to conditions: for SULF inhibition on plant development: 100µM compound with 100µM sulfanilamide (Fig. 10F), 6 day-old; for plant-root waving: 100µM supplemented media (Fig. 10B). The procedure:
To get more insights into the pABA role on plant development, plants were grown in presence of pABA. […] Arabidopsis root waving occurs when plants are grown at the surface of an agar plate that is slightly tilted.

Data set [2] deals with Lex::UGT75B. Nature of the data set: Rescue of root defects of estradiol-induced Lex::UGT75B plants. Type of data set: in vivo, Arabidopsis thaliana. The source says:
Plant growth relies on auxin gradients maintained by series of auxin influx carriers of the AUXIN RESISTANT 1/ Like AUX1 (AUX/LAX) family, efflux facilitators such as ABCB/multi-drug resistance/P-glycoprotein (ABCB/MDR/PGP), and PIN-FORMED (PIN) proteins. PIN-proteins subcellular localization is highly dynamic and influenced by various internal and external signals, thereby directing and redirecting the intercellular fluxes of auxin[25]. […] During plant response to gravity, auxin transport through AtPIN2 plays a crucial role and pin2 mutants are unable to establish lateral auxin gradient after gravistimulation and therefore are agravitropic.

Data set [3] concerns ADCS-RNAi seedlings. Nature of the data set: Rescue of root growth arrest after conditional down regulation of GAT-ADCS (estradiol-inducible RNAi). The settings on record: EST-induced; 50µM compound for 6 days (Fig. 9C). It counts as in vivo, Arabidopsis thaliana.
The test system of data set [4] is Arabidopsis seedlings (Wild type Col 0). Nature of the data set: Safener activity on seedlings grown in presence of inhibitory concentrations of auxin (IAA). The settings on record: for root growth in the presence of inhibitory concentrations of IAA: 100 µM compound, 2 µM IAA. It counts as in vivo, Arabidopsis thaliana. The procedure: It was tested whether benzoic acid derivatives can counteract the activity of natural auxins (IAA) (Figure 17 and Figure 18). The experiments were carried out as described for Figure 10.

The test system of data set [5] is Arabidopsis seedlings. Nature of the data set: Activity of benzoic acid derivatives on root growth. Type of data set: in vivo, Arabidopsis thaliana. The settings on record: AM supplemented with 100 µM compound.
Data set [6] has as its system Poplar explants. Nature of the data set: Induction of adventitious roots on poplar explants. Type of data set: in vivo. The settings on record: 200 µM pABA. The source says: Since pABA can stimulate adventitious development in Arabidopsis, we tested whether pABA could also promotes adventitious development on poplar, a commercially important tree.
Data set [7] relates to Zea mays. Nature of the data set: Plants growing in soil and watered with a solution containing pABA. Type of data set: in vivo. As to conditions: watered with 1 mM pABA; n=10. The procedure: Maize seeds were germinated in Petri® dishes containing deionized-water-humidified Whatman® paper. Germinations of equal size were transferred in pots (one per pot) containing a mixture of soil and vermiculite and watered with tap water for 30 days. Then watering was stopped for 48h until soil looked dried at the surface of the pot.

For data set [8], the system named is Arabidopsis seedlings. Nature of the data set: Root response to gravity after rotating agar plates by 135°. As to conditions: plates rotated to 135° for 3h (Fig. 10G). It counts as in vivo, Arabidopsis thaliana.
For data set [9], the system named is Arabidopsis thaliana. Nature of the data set: Plants growing in soil and watered or sprayed with a solution of pABA. It counts as in vivo. The procedure: Arabidopsis plants were grown from seeds in pots in a mixture of soil and vermiculite and watered with tap water for 15 days. Then watering was stopped for 48h until soil looked dried at the surface of the pot. A total of 4 trails containing 51 pots each were divided into 2 parts. […] The other trails were sprayed with solutions described above. […] Plants growing in soil and watered or sprayed with a solution containing pABA

Data set [10] relates to Arabidopsis thaliana. Nature of the data set: Plants growing in agar plates supplemented with pABA. The settings on record: 200 µM pABA in agar plates, vs untreated plants. It counts as in vivo. The text has this: (§1) They were 3 replicates for each experiment.
The subject of data set [11] is Lycopersicum esculentum. The data set is described as above. It counts as in vivo. The settings on record: 200 µM pABA in agar plates, vs untreated plants.
Source text: as §1

For data set [12] the following is noted: cited from earlier work.
The subject of data set [13] is adcs-2. Nature of the data set: Homozygous adcs2 rescue experiment with pABA. Type of data set: in vivo, Arabidopsis thaliana. The settings on record: opened siliques transplanted on medium supplemented with pABA. The text has this: adcs T-DNA mutants (SALK_095283 and SALK_034215) were in Arabidopsis thaliana (L.) Heynh., ecotype Columbia (Col-0) background and ugt75b (AY027263) in Landsberg erecta (Ler).

On to `Nc1nc2c(c(=O)[nH]1)N(C=O)C(CNc1ccc(C(=O)N[C@@H](CCC(=O)O)C(=O)O)cc1)CN2` (stereo partly drawn) [5-FTHF, 5-formyl-tetrahydrofolate, reference compound], for which, in data set [1], the “SULF inhibition on plant development” value is “reverted” and the plant-root waving entry is “not”. Further, in data set [1] (applied at similar concentrations as pABA), the “phenocopy of the activity of pABA” value is “did not phenocopy the activity of pABA”. In [2] (20µM EST, 400µM compound (Fig. 14)), the “root growth recovery upon strong UGT75B induction” value is on record as “very poorly”. In addition, the “effect of supplementation on growth defects of β-estradiol-induced UGT75B plants” value in [2] (weak induction 0.1µM EST, 200µM 5-FTHF (Fig. 13E)) is “had no effect”. Further, in data set [3], the “rescue of arrested roots” value is reported as “could be rescued”. Moreover, the “root growth in the presence of inhibitory concentrations of IAA” value in data set [4] is recorded as “fully restored root growth”.
For the molecule `CCN(CC)CCOC(=O)c1ccc(N)cc1` [Procaine, procaine, reference compound], in data set [4], the “root growth in the presence of inhibitory concentrations of IAA” value is on record as “fully restored root growth”.
For the molecule `Nc1cccc(C(=O)O)c1` [mABA, 3-aminobenzoic acid], the “root growth in the presence of inhibitory concentrations of IAA” value in data set [4] was “fully restored root growth”.
As for `Nc1ccc(C(=O)O)cc1` [pABA, 4-aminobenzoic acid], in data set [5], the root growth-promoting activity result was “significant root growth-promoting activity”. In addition, in data set [6] (n=20), the Adventitious root number is on record as 6.15, the “Entire plant fresh weight” value was 216 ± 23.69 mg, the Number of leaves was found to be 8.09±0.59 and the Roots fresh weight turned out to be 68.68 mg. Moreover, in data set [6] (presumably increase vs control), the “Roots fresh weight, percentage in brackets” value is recorded as 46%. The “more adventitious than control” value in data set [6] (vs control) worked out at 129%. In data set [7], this molecule returned a Number of leaves of 6.58 ±0.14 and a Root weight of 7.85 ± 0.49 g. For the same molecule, the “gravitropic response of Arabidopsis primary root” value in data set [8] is reported as “increases gravitropic response”. Moreover, the “greater fresh weight than plant sprayed with only water” value in data set [9] (foliar application of 1 mM pABA) was 17.54%. Moreover, the “fresh weight of Arabidopsis aerial parts, Sprayed” value in [9] (sprayed with 1 mM pABA, n=51) was 0,62 ± 0,02. Further, in data set [9] (watered with 1 mM pABA, n=51), the “fresh weight of Arabidopsis aerial parts, Watered” value is reported as 1,08 ± 0,03. For the same molecule, in data set [9] (watering with 1 mM pABA, vs water), the “induced fresh weight of Arabidopsis aerial parts on average” value is 3.84%. For the same molecule, in data set [10] (after 10 days), the adventitious roots result is reported as “more adventitious roots” and the lateral roots result is recorded as “more lateral roots”. Also, in data set [10] (six days after germination), the root hairs result was “longer root hairs”. Also, in data set [11] (after 10 days), the adventitious roots entry was “more adventitious roots” and the lateral roots result is listed as “more lateral roots”. The root hairs entry in data set [11] (six days after germination) is listed as “longer root hairs”. Further, in data set [1], the “SULF inhibition on plant development” value was “reverted” and the plant-root waving entry is given as “suppressed”. Besides, in [1] (100µM supplemented media (Fig. 10C)), the “development of LR and AR” value was “induces development of LR and AR”. Moreover, the root hair length entry in data set [1] (pABA treatment (Fig. 10D-E)) was “increases root hair length”. Moreover, the “Concentrations that inhibited root growth and promoted lateral and adventitious roots development as well as root hair growth” value in data set [1] (wild type seedlings on AM, aerial part not affected) is “greater than 50 µM”. For the same molecule, the pKa value result in [12] is given as “about 4.9”. In addition, the “rescue of arrested roots” value in [3] was “could be rescued”. The “development of embryos arrested at the globular stage” value in [13] is “could develop further”. Besides, the “growth-inhibitory effects of IAA” value in [4] (1 µM IAA + 100µM pABA) is reported as “could antagonize”. Besides, the “root growth in the presence of inhibitory concentrations of IAA” value in data set [4] was “fully restored root growth”.
